Laboratory results from patent publication US12201609B2, “Saroglitazar for the treatment of hepatocellular carcinoma” (CADILA HEALTHCARE LIMITED, priority 2018, dated 2025).

Tested on: Hepatocellular Carcinoma Induced by Intraperitoneal Injection of Diethylnitrosamine in C57/BL6 Mice
Assay: Saroglitazar efficacy in hepatocellular carcinoma induced by diethylnitrosamine (DEN) injection and CDAHFD feeding in mice
Assay type: in vivo, C57BL/6 male mice
Conditions: CDAHFD-DEN mice; for Serum ALT levels, % Change Vs Disease Control / Serum AST levels, % Change Vs Disease Control / Serum TG levels, % Change Vs Disease Control / % animals showing liver tumor / No. of animal with tumor / No. of liver tumors/animal / Serum ALT levels / Serum AST levels / Serum TG levels: p.o.; for % animals showing liver tumor / No. of animal with tumor / No. of liver tumors/animal: 27 weeks treatment; for Serum ALT levels / Serum AST levels / Serum TG levels: at termination
Source text: Evaluation of Saroglitazar's efficacy in Hepatocellular Carcinoma Induced by Intraperitoneal Injection of Diethylnitrosamine in C57/BL6 Mice.
In this study, hepatocellular carcinoma (HCC) was induced in C57BL/6 male mice first by injecting them with diethylnitrosamine (DEN) and by then feeding them a choline-deficient, L-amino acid-defined, high-fat diet (CDAHFD); Developed an experimental mouse model of hepatocellular carcinoma (Ohno T, Shimizu M, Shirakami Y, Baba A, Kochi T, Kubota M, et al. (2015) Metformin Suppresses Diethylnitrosamine-Induced Liver Tumorigenesis in Obese and Diabetic C57BL/KsJ−+Leprdb/+Leprdb Mice. PLoS ONE 10(4): e0124081; Journal of Cancer, 2018; 9(5): 914-922;)
The objective of this study was to evaluate the efficacy of Saroglitazar for prevention and or regression of hepatocellular carcinoma in mice after intraperitoneal injection of diethylnitrosamine and feeding of Choline deficient, L-amino acid-defined, High-fat Diet.
HCC was induced in C57BL/6 male mice by feeding them a choline-deficient, L-amino acid-defined, high-fat diet (CDAHFD) and administration of diethylnitrosamine (DEN). DEN was administered one-time by intraperitoneal route at the age of 3-weeks. Treatment with Saroglitazar (1 and 3 mg/kg) was initiated after 8 weeks of CDAHFD initiation and continued for 27 weeks.
After 8 weeks of CDAHFD diet (or DEN administration) blood collection was performed for serum ALT, AST and on the basis serum ALT level animals were divided in to following groups: • 1. Control for CDAHFD+Vehicle (n=10)—Normal Control • 2. CDAHFD—Saline+Vehicle (n=10)—CDAHFD Control • 3. CDAHFD—DEN+Vehicle (n=15)—Disease Control • 4. CDAHFD—DEN+Saroglitazar 1 mg/kg, p.o. (n=15)—D-Saro (1 mg/kg, p.o.) • 5. CDAHFD—DEN+Saroglitazar 3 mg/kg, p.o. (n=15)—D-Saro (3 mg/kg, p.o.)
Test compound formulation was prepared in Tween 80 and 0.5% sodium CMC in ratio of 0.5:99.5 in such that volume of administration will be 10 ml/kg.
Treatment along with diet was continued for 27 weeks.
In this study almost 50% animals from each group were terminated at 31 weeks after DEN injection and remaining 50% animals were sacrificed at 35 weeks after DEN administration (i.e. completion of 27 weeks of treatment). At termination, blood collection was performed for serum parameters like ALT, AST and TG. Animals were sacrificed; spleen and liver will be collected and weighed. Liver will be observed for presence of tumors, number of tumors and size of tumors. Liver was collected for liver biochemistry, histology

In the case of `CCO[C@@H](Cc1ccc(OCCn2c(C)ccc2-c2ccc(SC)cc2)cc1)C(=O)O` [Saroglitazar], the “prevention of hepatic carcinogenesis” value (3 mg/kg dose) is reported as 100%, the “tumor in liver (in words)” value (3 mg/kg dose) is reported as “did not show any tumor in liver” and the “reduction in serum ALT” value (3 mg/kg, vs disease control) is reported as 40%. The “reduction in serum AST” value (3 mg/kg, vs disease control) was 44%, the “effect on liver tumor incidence (in words)” value (1 and 3 mg/kg) was “dose dependent effect on liver tumor incidence” and the “serum triglycerides levels (in words)” value (1 and 3 mg/kg) was “dose dependent reduction”. The “Serum ALT levels, % Change Vs Disease Control” value (Saroglitazar 1 mg/kg) was −33.6%, the “Serum AST levels, % Change Vs Disease Control” value (Saroglitazar 1 mg/kg) was −36.2% and the “Serum TG levels, % Change Vs Disease Control” value (Saroglitazar 1 mg/kg) was −38.4%. The “% animals showing liver tumor” value (Saroglitazar 1 mg/kg) was 20.0%, the “No. of animal with tumor” value (Saroglitazar 1 mg/kg) was 3 out of 15 and the “No. of liver tumors/animal” value (Saroglitazar 1 mg/kg) was 0.3. For the same compound, the “Serum ALT levels” value (Saroglitazar 1 mg/kg) was 232.3 U/L, the “Serum AST levels” value (Saroglitazar 1 mg/kg) was 231.1 U/L and the “Serum TG levels” value (Saroglitazar 1 mg/kg) was 42.7 mg/dL. The “Serum ALT levels, % Change Vs Disease Control” value (Saroglitazar 3 mg/kg) was −39.9%, the “Serum AST levels, % Change Vs Disease Control” value (Saroglitazar 3 mg/kg) was −43.9% and the “Serum TG levels, % Change Vs Disease Control” value (Saroglitazar 3 mg/kg) was −54.6%. The “% animals showing liver tumor” value (Saroglitazar 3 mg/kg) was 0.0%, the “No. of animal with tumor” value (Saroglitazar 3 mg/kg) was 0 out of 15 and the “No. of liver tumors/animal” value (Saroglitazar 3 mg/kg) was 0.0. For the same compound, the “Serum ALT levels” value (Saroglitazar 3 mg/kg) was 210.5 U/L, the “Serum AST levels” value (Saroglitazar 3 mg/kg) was 203.0 U/L and the “Serum TG levels” value (Saroglitazar 3 mg/kg) was 31.5 mg/dL. For the same compound, the “liver injury markers, serum ALT and AST (in words)” value (Saroglitazar treatment) was “significant reduction”.
